Reference: ChEMBL document CHEMBL5523684, “Development of a tetrahydroindazolone-based HDAC6 inhibitor with in-vivo anti-arthritic activity” (Bioorg Med Chem, 2024)

How the values were obtained:
Homo sapiens = organism: Homo sapiens; test: Selectivity index, ratio of IC50 for inhibition of his-tagged human recombinant HDAC1 using fluor de lys-SIRT1 as substrate to IC50 for inhibition of N-terminal GST-tagged human recombinant HDAC6 expressed in Spodoptera frugiperda
[1] = target: T1, Protein deacetylase HDAC6 (Homo sapiens, UniProt Q9UBN7); test: Inhibition of N-terminal GST-tagged human recombinant HDAC6 expressed in Spodoptera frugiperda incubated for 60 mins by fluorescence based analysis
T1 sequence (Q9UBN7 whole entry): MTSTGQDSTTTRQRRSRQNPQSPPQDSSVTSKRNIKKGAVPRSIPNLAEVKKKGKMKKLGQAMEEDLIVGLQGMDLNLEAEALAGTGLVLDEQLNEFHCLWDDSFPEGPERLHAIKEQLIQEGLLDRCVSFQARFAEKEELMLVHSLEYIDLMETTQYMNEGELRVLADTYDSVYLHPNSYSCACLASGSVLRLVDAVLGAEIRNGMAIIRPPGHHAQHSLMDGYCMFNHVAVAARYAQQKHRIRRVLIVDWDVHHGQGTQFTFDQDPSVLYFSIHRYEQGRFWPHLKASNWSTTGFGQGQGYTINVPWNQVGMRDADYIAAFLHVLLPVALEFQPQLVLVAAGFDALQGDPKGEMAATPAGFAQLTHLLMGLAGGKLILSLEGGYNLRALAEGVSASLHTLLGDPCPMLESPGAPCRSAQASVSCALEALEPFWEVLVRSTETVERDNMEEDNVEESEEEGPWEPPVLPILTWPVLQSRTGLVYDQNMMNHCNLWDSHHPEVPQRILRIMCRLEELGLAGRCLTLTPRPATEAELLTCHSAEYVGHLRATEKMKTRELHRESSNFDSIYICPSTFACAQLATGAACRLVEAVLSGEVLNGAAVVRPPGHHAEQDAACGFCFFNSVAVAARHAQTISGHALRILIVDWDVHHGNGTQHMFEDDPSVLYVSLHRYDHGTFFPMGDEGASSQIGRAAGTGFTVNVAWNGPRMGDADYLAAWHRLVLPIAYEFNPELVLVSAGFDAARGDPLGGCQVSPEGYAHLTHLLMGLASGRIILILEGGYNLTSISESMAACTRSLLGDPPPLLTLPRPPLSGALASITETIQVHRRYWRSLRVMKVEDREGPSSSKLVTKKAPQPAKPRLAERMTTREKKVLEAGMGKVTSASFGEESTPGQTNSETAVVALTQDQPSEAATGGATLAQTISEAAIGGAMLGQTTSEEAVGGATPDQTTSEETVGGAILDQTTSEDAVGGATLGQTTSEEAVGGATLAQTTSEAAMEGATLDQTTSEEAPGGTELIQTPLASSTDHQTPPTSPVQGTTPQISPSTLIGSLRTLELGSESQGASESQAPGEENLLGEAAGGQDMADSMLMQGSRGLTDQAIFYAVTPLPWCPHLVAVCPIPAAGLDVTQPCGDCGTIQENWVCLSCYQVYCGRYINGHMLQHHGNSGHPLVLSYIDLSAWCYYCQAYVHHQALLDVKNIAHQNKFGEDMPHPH

Histone deacetylase 2 = Histone deacetylase 2 (Homo sapiens, UniProt Q92769); test: Inhibition of human recombinant HDAC2 using fluorescent peptide p53 (379 to 382 residues) RHKK(Ac) as substrate by fluorescence based analysis
Chain of Histone deacetylase 2 (Q92769 whole entry, the tested form may be a part): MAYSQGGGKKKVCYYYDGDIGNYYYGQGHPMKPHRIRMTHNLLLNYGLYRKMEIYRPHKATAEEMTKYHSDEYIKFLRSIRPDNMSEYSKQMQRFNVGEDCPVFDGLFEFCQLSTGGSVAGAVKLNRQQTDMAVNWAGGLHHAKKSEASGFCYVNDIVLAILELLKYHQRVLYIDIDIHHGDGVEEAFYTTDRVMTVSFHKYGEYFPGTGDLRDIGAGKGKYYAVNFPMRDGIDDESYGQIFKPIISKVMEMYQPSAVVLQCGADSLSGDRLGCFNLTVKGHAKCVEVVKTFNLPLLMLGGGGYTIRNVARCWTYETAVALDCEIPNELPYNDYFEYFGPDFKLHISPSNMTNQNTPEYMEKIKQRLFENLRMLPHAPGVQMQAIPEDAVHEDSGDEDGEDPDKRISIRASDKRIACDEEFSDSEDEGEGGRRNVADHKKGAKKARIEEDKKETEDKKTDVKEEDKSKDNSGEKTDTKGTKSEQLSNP

[2] = target: T2, Polyamine deacetylase HDAC10 (Homo sapiens, UniProt Q969S8); test: Inhibition of human recombinant HDAC10 using fluorescent peptide p53 (379 to 382 residues) RHKK(Ac) as substrate by fluorescence based analysis
T2 sequence (Q969S8 whole entry): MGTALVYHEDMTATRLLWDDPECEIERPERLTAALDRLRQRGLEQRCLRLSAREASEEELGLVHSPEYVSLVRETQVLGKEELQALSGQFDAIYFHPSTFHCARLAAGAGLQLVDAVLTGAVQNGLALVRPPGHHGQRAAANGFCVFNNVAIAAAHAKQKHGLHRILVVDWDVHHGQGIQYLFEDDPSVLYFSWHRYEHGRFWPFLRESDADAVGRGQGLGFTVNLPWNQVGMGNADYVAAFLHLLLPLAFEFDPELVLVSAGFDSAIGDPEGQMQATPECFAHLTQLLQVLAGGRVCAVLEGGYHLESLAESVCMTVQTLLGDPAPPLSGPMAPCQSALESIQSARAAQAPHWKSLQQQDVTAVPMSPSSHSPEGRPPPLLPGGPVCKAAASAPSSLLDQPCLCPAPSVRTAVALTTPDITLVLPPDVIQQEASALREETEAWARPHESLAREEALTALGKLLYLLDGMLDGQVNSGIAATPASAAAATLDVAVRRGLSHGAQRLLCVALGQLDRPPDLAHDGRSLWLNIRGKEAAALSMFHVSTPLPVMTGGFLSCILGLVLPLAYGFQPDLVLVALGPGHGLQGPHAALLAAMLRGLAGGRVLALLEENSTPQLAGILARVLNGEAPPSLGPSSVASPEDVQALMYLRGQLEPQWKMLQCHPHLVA

[3] = target: T1, Protein deacetylase HDAC6; test: Inhibition of human recombinant HDAC6 using fluorescent peptide p53 (379 to 382 residues) RHKK(Ac) as substrate by fluorescence based analysis
Histone deacetylase 3 = Histone deacetylase 3 (Homo sapiens, UniProt O15379)
Chain of Histone deacetylase 3 (O15379 whole entry): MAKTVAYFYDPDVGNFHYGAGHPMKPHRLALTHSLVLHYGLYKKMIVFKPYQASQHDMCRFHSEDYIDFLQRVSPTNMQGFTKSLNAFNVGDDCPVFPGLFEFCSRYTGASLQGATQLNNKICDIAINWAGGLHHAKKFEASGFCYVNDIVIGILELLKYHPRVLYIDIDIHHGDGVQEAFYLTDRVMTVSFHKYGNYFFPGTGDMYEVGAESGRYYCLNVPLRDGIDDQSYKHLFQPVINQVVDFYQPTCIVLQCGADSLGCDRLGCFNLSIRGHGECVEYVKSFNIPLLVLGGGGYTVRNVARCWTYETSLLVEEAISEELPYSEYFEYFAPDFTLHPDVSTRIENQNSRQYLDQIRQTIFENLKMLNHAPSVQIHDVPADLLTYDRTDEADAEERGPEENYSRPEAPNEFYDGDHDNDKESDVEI

Histone deacetylase 1 [4] = target: T3, Histone deacetylase 1 (Homo sapiens, UniProt Q13547); test: Inhibition of his-tagged human recombinant HDAC1 using fluor de lys-SIRT1 as substrate incubated for 60 mins by fluorescence based analysis
T3 sequence (Q13547 whole entry): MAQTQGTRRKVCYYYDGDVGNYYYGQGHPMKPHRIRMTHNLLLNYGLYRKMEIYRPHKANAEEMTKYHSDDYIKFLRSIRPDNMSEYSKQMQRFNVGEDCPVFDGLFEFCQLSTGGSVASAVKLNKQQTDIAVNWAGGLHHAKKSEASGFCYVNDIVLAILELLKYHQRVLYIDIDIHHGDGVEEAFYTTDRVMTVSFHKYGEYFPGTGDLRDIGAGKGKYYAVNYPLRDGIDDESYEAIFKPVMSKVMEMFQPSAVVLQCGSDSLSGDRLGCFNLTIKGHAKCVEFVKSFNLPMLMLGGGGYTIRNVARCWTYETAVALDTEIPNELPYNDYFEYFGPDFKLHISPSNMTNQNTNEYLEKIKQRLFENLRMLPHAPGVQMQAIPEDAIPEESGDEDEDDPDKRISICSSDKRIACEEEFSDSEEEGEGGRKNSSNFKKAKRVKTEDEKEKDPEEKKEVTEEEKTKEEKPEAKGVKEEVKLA

Histone deacetylase 1 [5] = target: T3, Histone deacetylase 1; test: Inhibition of HDAC1 (unknown origin)

Row | SMILES | Ratio IC50 (Homo sapiens) | IC50 [1] | further results
1 | CC1(C)CC(=O)c2c(n(Cc3ccc(C(=O)NO)cc3)c3ccc(Br)cc23)C1 | 42.4 | – | –
2 | CN1CCN(CC2C(=O)c3c(n(Cc4ccc(C(=O)NO)cc4)c4ccc(F)cc34)CC2(C)C)CC1 (stereo not drawn) | 182 | 0.002 µM | –
3 | O=C(NO)c1ccc(Cn2c3c(c4cc(F)ccc42)C(=O)CCC3)cc1 | 328 | – | –
4 | CC(C)(C)OC(=O)N1CCN(CC2CCc3c(c4cc(F)ccc4n3Cc3ccc(C(=O)NO)cc3)C2=O)CC1 (stereo not drawn) | 311 | – | –
5 | Cc1nn(Cc2ccc(C(=O)NO)cc2)c2c1C(=O)CC(C)(C)C2 | 135 | 0.012 µM | –
6 | CC(C)(C)OC(=O)N1CCN(CC2CCc3c(c4ccccc4n3Cc3ccc(C(=O)NO)cc3)C2=O)CC1 (stereo not drawn) | 327 | – | –
7 | Cc1c2c(n(Cc3ccc(C(=O)NO)cc3)c1C)CCCC2=O | 705 | 0.004 µM | –
8 | CCN1CCN(CC2CCc3c(c4ccccc4n3Cc3ccc(C(=O)NO)cc3)C2=O)CC1 (stereo not drawn) | 329 | 0.014 µM | –
9 | O=C(NO)c1ccc(Cn2c3c(c4cc(F)ccc42)C(=O)C(CN2CCOCC2)CC3)cc1 (stereo not drawn) | 828 | 0.005 µM | –
10 | Cc1ccc(N2CCN(CC3CCc4c(c5ccccc5n4Cc4ccc(C(=O)NO)cc4)C3=O)CC2)cc1C (stereo not drawn) | 203 | 0.04 µM | –
11 | CC1(C)Cc2c(c3cc(F)ccc3n2Cc2ccc(C(=O)NO)cc2)C(=O)C1CN1CCOCC1 (stereo not drawn) | 41.4 | – | –
12 | CCN1CCN(CC2CCc3c(c4cc(F)ccc4n3Cc3ccc(C(=O)NO)cc3)C2=O)CC1 (stereo not drawn) | 202 | 0.011 µM | –
13 | CN1CCN(CC2CCc3c(c4cc(F)ccc4n3Cc3ccc(C(=O)NO)cc3)C2=O)CC1 (stereo not drawn) | 530 | 0.005 µM | IC50 (Histone deacetylase 2): > 20 µM; IC50 [2]: > 20 µM; IC50 [3]: 0.004 µM; IC50 (Histone deacetylase 3): > 20 µM
14 | Cc1cn(Cc2ccc(C(=O)NO)cc2)c2c1C(=O)CCC2 | 543 | 0.002 µM | IC50 (Histone deacetylase 1 [4]): 1.13 µM
15 | O=C(NO)c1ccc(Cn2c3c(c4ccccc42)C(=O)C(CN2CCN(c4ccc(F)cc4)CC2)CC3)cc1 (stereo not drawn) | 661 | 0.008 µM | –
16 | Cc1nccn1CC1C(=O)c2c(n(Cc3ccc(C(=O)NO)cc3)c3ccccc23)CC1(C)C (stereo not drawn) | 166 | 0.035 µM | –
17 | CC1(C)CC(=O)c2c(n(Cc3ccc(C(=O)NO)cc3)c3ccccc23)C1 | 345 | 0.012 µM | IC50 (Histone deacetylase 1 [4]): 4.14 µM
18 | CCCCN1CCN(CC2CCc3c(c4cc(F)ccc4n3Cc3ccc(C(=O)NO)cc3)C2=O)CC1 (stereo not drawn) | 373 | 0.006 µM | –
19 | CC(C)N1CCN(CC2CCc3c(c4cc(F)ccc4n3Cc3ccc(C(=O)NO)cc3)C2=O)CC1 (stereo not drawn) | 50.2 | – | –
20 | Cc1c2c(n(Cc3ccc(C(=O)NO)cc3)c1C)CC(C)(C)CC2=O | 464 | 0.011 µM | –
21 | CC1(C)Cc2c(c3ccccc3n2Cc2ccc(C(=O)NO)cc2)C(=O)C1CN1CCOCC1 (stereo not drawn) | 153 | – | –
22 | CC1CN(CC2CCc3c(c4ccccc4n3Cc3ccc(C(=O)NO)cc3)C2=O)CC(C)O1 (stereo not drawn) | 79.1 | 0.011 µM | IC50 (Histone deacetylase 1 [4]): 0.87 µM
23 | O=C(NO)c1ccc(Cn2c3c(c4ccccc42)C(=O)C(CN2CCCCC2)CC3)cc1 (stereo not drawn) | 284 | 0.012 µM | –
24 | Cc1cn(Cc2ccc(C(=O)NO)cc2)c2c1C(=O)CC(C)(C)C2 | 380 | 0.008 µM | –
25 | Cc1nccn1CC1CCc2c(c3cc(F)ccc3n2Cc2ccc(C(=O)NO)cc2)C1=O (stereo not drawn) | 570 | 0.009 µM | –
26 | CN1CCN(CC2CCc3c(c4ccccc4n3Cc3ccc(C(=O)NO)cc3)C2=O)CC1 (stereo not drawn) | 345 | 0.012 µM | –
27 | O=C(NO)c1ccc(Cn2c3c(c4ccccc42)CCCC3)cc1 | – | – | IC50 (Histone deacetylase 1 [5]): 10.9 µM
